The values that follow are results of earlier work, collected in patent publication US6495521B2, “Combination therapy method for treating chronic hepatitis B” (SciClone Pharmaceuticals, Inc., priority 1993, dated 2002).

The conditions of series [1]: individuals suffering from chronic active hepatitis B.
Another series has as its system hepatitis B virus. Particulars: patients with chronic active hepatitis B who received the peptide.

In the case of “Ac-Ser-Asp-Ala-Ala-Val-Asp-Thr-Ser-Ser-Glu- Ile-Thr-Thr-Lys-Asp-Leu-Lys-Glu-Lys-Lys-Glu- Val-Val-Glu-Glu-Ala-Glu-Asn-OH (Ac-SDAAVDTSSEITTKDLKEKKEVVEEAEN-OH) [thymosin alpha-1, 28 amino acid peptide originally isolated from calf thymus thymosin fraction 5]”, in series [1], the lymphocyte counts entry is on record as “increases in lymphocyte counts” and the production of gamma-interferon entry was “enhance production of gamma-interferon”. In addition, the “patients who cleared hepatitis B virus DNA from serum and persistently tested negative for serum HBV DNA after treatment was terminated” value with hepatitis B virus was 75%.
